Data as given in article PMC9465641 (Frontiers in Pharmacology, 2022).
Where a name gives a salt, the structure may show the parent alone. Positions of bridges follow the written chain, without caps; N, C: chain ends. Non-standard residues stand in square brackets, D forms with d. Residues, ends and D or L forms follow the SMILES beside them. *: point of attachment. X1 = CC[C@H](C)CCCCC(=O)*; Dab = NCC[C@H](N)C(=O)O

How the values were obtained:
[1] = Population pharmacokinetic modeling of intravenous colistin sulfate (plasma LC-MS/MS, Phoenix NLME); format: in vivo, human
Protocol: This study was conducted at the Third Xiangya Hospital of Central South University between May 2021 and April 2022. The design of this research fully conformed to the principles of the Helsinki Accords, and the study protocol was approved by the Research Ethics Committee of the Third Xiangya Hospital of Central South University (No: 2021-S396). Written informed consent was obtained from all patients or their legal representatives.
Colistin sulfate treatment was at the discretion of their medical teams. […] Colistin sulfate was routinely subjected to therapeutic drug monitoring (TDM) in our hospital. […] Other blood samples were collected randomly from residual blood of blood gas analysis or routine blood tests. In addition, urine samples from 6 patients with catheters in the intensive care unit were collected and recorded across a dosage interval (0–12 h after dosing) after 72 h of therapy. All samples were centrifuged for 10 min (4,000 ×g), and the supernatant was immediately collected and stored at −80°C pending analysis.
Colistin A and colistin B in plasma and urinary samples were quantified using a validated ultraperformance liquid chromatography tandem mass spectrometry (LC-MS/MS) assay. Briefly, samples were pretreated with acetonitrile, and 1 μL supernatant was injected into the LC-MS/MS instrument for analysis. A Waters XBridge BEH HILIC (4.6 × 150 mm, 2.5 μm) column was used. The mobile phase, consisting of eluents A (0.1% formic acid in water, vol/vol) and B (methanol), was delivered at a flow of 0.5 ml/min. Analysis of independently prepared quality control samples indicated good reproducibility (coefficients of variation ≤12.57%), and accuracy ranged from 88.52% to 109.43%. The limit of quantification was 0.034 mg/L for colistin A and 0.059 mg/L for colistin B. Since colistin A and B had similar structures, molecular weights and pharmacokinetic characteristics, the concentrations of colistin A and B were added together and referred to as colistin ([Li et al., 2003]; [Couet et al., 2011]).
Population PK analysis was performed using a non-linear mixed-effect modeling with the Phoenix® NLME software (version 8.3.4, Certara L.P. United States). The first-order conditional estimation-extended least-squares (FOCE-ELS) method was used to develop the PPK model. One- and two-compartment models with linear elimination were compared based on Akaike information criteria (AIC) and Bayesian information criterion (BIC). The inter-individual variability of PK parameters was assumed to follow a log-normal distribution and described using an exponential model, and residual variability was described by an additive, proportional, or combined error model. The coefficient of variation (CV%), goodness-of-fit plots, and the likelihood ratio test (-2 loglikelihood; -2LL) were used to evaluate the model.
Then, a stepwise covariate modeling (SCM) method was used to explore candidate covariates on PK parameters, including age, sex, weight, ALT, AST, TBIL, DBIL, TBA, TP, ALB, UA, BUN, CrCL, WBC, NEUT, HGB, RBC, HCT, PLT, PT, TT, APTT, PA, FIB, CRP, PCT, LAC, and 24-h urine volume, where continuous covariates (e.g., age) were modeled by using the power function and categorical covariates (e.g., sex) were described by an exponential function. By comparing with the base model, a drop in objective function value (OFV) > 3.84 (p < 0.05, df = 1) during forward selection steps and an increase of OFV >6.63 (p < 0.01, df = 1) in backward elimination steps were the inclusion criteria for covariates.
Finally, the reliability of the final model was evaluated by goodness-of-fit plots. Additionally, the performance of the final model was assessed by a prediction-corrected visual predictive check (pcVPC) of 1,000 replicates using Monte Carlo simulations, and a bootstrap analysis with 1,000 samples was conducted to evaluate the model stability.

[2] = system: PA+AB (P. aeruginosa + A. baumannii); experiment: MIC for colistin of causative pathogen; format: cell-based
[3] = used for fAUC/MIC; ref Nation et al., 2016; cited from earlier work
Protocol: The AUC for each dosing regimen was calculated at 24 or 72 h after therapy to evaluate the probability of target attainment (PTA) of fAUC/MIC ≥20 ([Dudhani et al., 2010a]; [Cheah et al., 2015]), where f is the unbound fraction of colistin defined as 0.49 ([Nation et al., 2016]). Dosing regimens were considered appropriate if PTA ≥90% was achieved. In addition, the average steady-state plasma colistin concentration (Css,avg) was used to evaluate the probabilities of efficacy and toxicity, and the desired Css, avg were designed to achieve target attainment rates of >80% for Css,avg ≥ 2 and <30% ...

[4] = set-up: method as in Couet et al., 2011; settings: colistin converted from CMS; ref Couet et al., 2011; cited from earlier work
K. pneumoniae = experiment: MIC for colistin of causative pathogen; format: cell-based; settings: isolate of patient 2; KP

In the case of `CC[C@H](C)CCCCC(=O)N[C@@H](CCN)C(=O)N[C@H](C(=O)N[C@@H](CCN)C(=O)N[C@H]1CCNC(=O)[C@H]([C@@H](C)O)NC(=O)[C@H](CCN)NC(=O)[C@H](CCN)NC(=O)[C@H](CC(C)C)NC(=O)[C@@H](CC(C)C)NC(=O)[C@H](CCN)NC1=O)[C@@H](C)O` [colistin sulfate] (X1-[Dab]T[Dab][Dab][Dab][dL]L[Dab][Dab]T; lactam 4-C), the “dV2dALT, exponential parameter coefficient of ALT to V2, final model estimate” value ([1]; PPK model, n = 20) is reported as 0.635, the “dCLdCrCL, bootstrap median” value ([1]; bootstrap with 1,000 samples) is reported as 0.373 and the “dV2dALT, bootstrap median” value ([1]; bootstrap with 1,000 samples) is reported as 0.633. The “tvCL2, bootstrap median” value ([1]; bootstrap with 1,000 samples) was 1.78 L/h, the “tvCL, bootstrap median” value ([1]; bootstrap with 1,000 samples) was 1.46 L/h and the “tvV2, bootstrap median” value ([1]; bootstrap with 1,000 samples) was 53.8 L. For the same molecule, the “tvV, bootstrap median” value ([1]; bootstrap with 1,000 samples) was 16.2 L, the “tvV, typical value of volume of central compartment distribution (V), final model estimate” value ([1]; critically ill patients, iv, n = 20, 98 plasma concentrations, two-compartment PPK model) was 16.1 L and the “tvCL2, typical value of inter-compartmental clearance (CL2), final model estimate” value ([1]; critically ill patients, iv, n = 20, two-compartment PPK model) was 1.71 L/h. For the same molecule, the “tvV2, typical value of volume of peripheral compartment distribution (V2), final model estimate” value ([1]; critically ill patients, iv, n = 20, two-compartment PPK model, at ALT 37) was 50.5 L, the “tvCL, typical value of central compartment clearance (CL), final model estimate” value ([1]; critically ill patients, iv, n = 20, two-compartment PPK model, at CrCL 57.5) was 1.50 L/h and the “CL, median” value ([1]; six patients with urine samples, median) was 1.519 L/h. The MIC ([2]; isolates of patient 15, first printed value) was 1 µg/mL, the MIC ([2]; isolates of patient 15, second printed value) was 2 µg/mL and the “unbound fraction (f)” value [3] was 0.49. The CL [4] was 2.92 L/h and the MIC (K. pneumoniae) was 0.5 µg/mL.
